From PubChem BioAssay (NCI)
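How tested: cells in 96-well plates exposed to compound for 48 hours at five concentrations. Definition used: TGI = concentration required for complete inhibition of growth.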

Assays:
Assay in all cases: NCI tumour cell line growth inhibition, 48 h
HCC-2998 colon = test system: HCC-2998 colon
NCI-H226 lung = test system: NCI-H226 lung
HOP-18 NSCLC = test system: HOP-18 NSCLC
OVCAR-8 ovarian = test system: OVCAR-8 ovarian
SF-268 CNS = test system: SF-268 CNS
786-0 renal = test system: 786-0 renal
SF-295 CNS = test system: SF-295 CNS
SNB-19 CNS = test system: SNB-19 CNS
SNB-78 CNS = test system: SNB-78 CNS
RPMI-8226 leukemia = test system: RPMI-8226 leukemia
TK-10 renal = test system: TK-10 renal
LXFL 529 NSCLC = test system: LXFL 529 NSCLC
NCI-H522 lung = test system: NCI-H522 lung
M14 melanoma = test system: M14 melanoma
M19-MEL melanoma = test system: M19-MEL melanoma
UACC-257 melanoma = test system: UACC-257 melanoma
U251 CNS = test system: U251 CNS
HCT-116 colon = test system: HCT-116 colon
SK-MEL-2 melanoma = test system: SK-MEL-2 melanoma
SK-OV-3 ovarian = test system: SK-OV-3 ovarian
A498 renal = test system: A498 renal
DLD-1 colon = test system: DLD-1 colon
UO-31 renal = test system: UO-31 renal
SK-MEL-28 melanoma = test system: SK-MEL-28 melanoma
SN12C renal = test system: SN12C renal
KM12 colon = test system: KM12 colon
NCI-H460 lung = test system: NCI-H460 lung
SNB-75 CNS = test system: SNB-75 CNS
KM20L2 colon = test system: KM20L2 colon
RXF-631 renal = test system: RXF-631 renal
IGROV1 ovarian = test system: IGROV1 ovarian
RXF 393 renal = test system: RXF 393 renal
NCI-H23 lung = test system: NCI-H23 lung
HCT-15 colon = test system: HCT-15 colon
HT29 colon = test system: HT29 colon
A549 NSCLC = test system: A549 NSCLC
SF-539 CNS = test system: SF-539 CNS
MALME-3M melanoma = test system: MALME-3M melanoma
HOP-62 NSCLC = test system: HOP-62 NSCLC
ACHN renal = test system: ACHN renal
SR leukemia = test system: SR leukemia
K-562 leukemia = test system: K-562 leukemia
XF 498 CNS = test system: XF 498 CNS
OVCAR-5 ovarian = test system: OVCAR-5 ovarian
SW-620 colon = test system: SW-620 colon
EKVX NSCLC = test system: EKVX NSCLC
SK-MEL-5 melanoma = test system: SK-MEL-5 melanoma
CAKI-1 renal = test system: CAKI-1 renal
OVCAR-3 ovarian = test system: OVCAR-3 ovarian
LOX IMVI melanoma = test system: LOX IMVI melanoma
HOP-92 NSCLC = test system: HOP-92 NSCLC
UACC-62 melanoma = test system: UACC-62 melanoma
OVCAR-4 ovarian = test system: OVCAR-4 ovarian
DMS 273 small cell lung = test system: DMS 273 small cell lung
COLO 205 colon = test system: COLO 205 colon
MOLT-4 leukemia = test system: MOLT-4 leukemia
CCRF-CEM leukemia = test system: CCRF-CEM leukemia
DMS 114 small cell lung = test system: DMS 114 small cell lung

Cc1ccc(C2=C(c3ccccc3)C(O)(c3ccccc3)C(c3ccccc3)=C2c2ccc(C)cc2)cc1
TGI (HCC-2998 colon): > 100 µM
TGI (NCI-H226 lung): > 100 µM
TGI (HOP-18 NSCLC): > 100 µM
TGI (OVCAR-8 ovarian): > 100 µM
TGI (SF-268 CNS): > 100 µM
TGI (786-0 renal): > 100 µM
TGI (SF-295 CNS): > 100 µM
TGI (SNB-19 CNS): > 100 µM
TGI (SNB-78 CNS): > 100 µM
TGI (RPMI-8226 leukemia): > 100 µM
TGI (TK-10 renal): > 100 µM
TGI (LXFL 529 NSCLC): > 100 µM
TGI (NCI-H522 lung): > 100 µM
TGI (M14 melanoma): > 100 µM
TGI (M19-MEL melanoma): > 100 µM
TGI (UACC-257 melanoma): > 100 µM
TGI (U251 CNS): > 100 µM
TGI (HCT-116 colon): > 100 µM
TGI (SK-MEL-2 melanoma): > 100 µM
TGI (SK-OV-3 ovarian): > 100 µM
TGI (A498 renal): > 100 µM
TGI (DLD-1 colon): > 100 µM
TGI (UO-31 renal): > 100 µM
TGI (SK-MEL-28 melanoma): > 100 µM
TGI (SN12C renal): > 100 µM
TGI (KM12 colon): > 100 µM
TGI (NCI-H460 lung): > 100 µM
TGI (SNB-75 CNS): > 100 µM
TGI (KM20L2 colon): > 100 µM
TGI (RXF-631 renal): > 100 µM
TGI (IGROV1 ovarian): > 100 µM
TGI (RXF 393 renal): > 100 µM
TGI (NCI-H23 lung): > 100 µM
TGI (HCT-15 colon): > 100 µM
TGI (HT29 colon): > 100 µM
TGI (A549 NSCLC): > 100 µM
TGI (SF-539 CNS): > 100 µM
TGI (MALME-3M melanoma): > 100 µM
TGI (HOP-62 NSCLC): > 100 µM
TGI (ACHN renal): > 100 µM
TGI (SR leukemia): > 100 µM
TGI (K-562 leukemia): > 100 µM
TGI (XF 498 CNS): > 100 µM
TGI (OVCAR-5 ovarian): > 100 µM
TGI (SW-620 colon): > 100 µM
TGI (EKVX NSCLC): > 100 µM
TGI (SK-MEL-5 melanoma): > 100 µM

Cn1cnc([N+](=O)[O-])c1Sc1nnc(-c2ccc(Cl)cc2)n1C
TGI (HCC-2998 colon): 32.3 µM
TGI (CAKI-1 renal): 29.7 µM
TGI (NCI-H226 lung): 65.9 µM
TGI (HOP-18 NSCLC): 18.1 µM
TGI (OVCAR-8 ovarian): 46 µM
TGI (SF-268 CNS): 54.7 µM
TGI (OVCAR-3 ovarian): 26.9 µM
TGI (LOX IMVI melanoma): 20.6 µM
TGI (SF-295 CNS): > 100 µM
TGI (SNB-19 CNS): > 100 µM
TGI (SNB-78 CNS): 31.9 µM
TGI (RPMI-8226 leukemia): 71.3 µM
TGI (TK-10 renal): 31.6 µM
TGI (HOP-92 NSCLC): 25.8 µM
TGI (LXFL 529 NSCLC): 22.3 µM
TGI (NCI-H522 lung): 15.6 µM
TGI (UACC-62 melanoma): 29 µM
TGI (M14 melanoma): 26.6 µM
TGI (M19-MEL melanoma): 27.5 µM
TGI (UACC-257 melanoma): 25.5 µM
TGI (U251 CNS): 30.4 µM
TGI (HCT-116 colon): 25.8 µM
TGI (OVCAR-4 ovarian): 27.1 µM
TGI (SK-MEL-2 melanoma): 34.8 µM
TGI (SK-OV-3 ovarian): > 100 µM
TGI (A498 renal): 81.8 µM
TGI (DLD-1 colon): 26.3 µM
TGI (UO-31 renal): 32.8 µM
TGI (SK-MEL-28 melanoma): 27.4 µM
TGI (SN12C renal): 28.4 µM
TGI (KM12 colon): 49.9 µM
TGI (DMS 273 small cell lung): 36 µM
TGI (NCI-H460 lung): 55.7 µM
TGI (SNB-75 CNS): 46.7 µM
TGI (RXF-631 renal): 30.9 µM
TGI (COLO 205 colon): 24.3 µM
TGI (IGROV1 ovarian): 32.7 µM
TGI (RXF 393 renal): 17 µM
TGI (NCI-H23 lung): 32.1 µM
TGI (HT29 colon): 32 µM
TGI (A549 NSCLC): > 100 µM
TGI (SF-539 CNS): 37.4 µM
TGI (MALME-3M melanoma): 23 µM
TGI (MOLT-4 leukemia): 66.1 µM
TGI (HOP-62 NSCLC): > 100 µM
TGI (ACHN renal): 29.3 µM
TGI (SR leukemia): 33.7 µM
TGI (CCRF-CEM leukemia): 22 µM
TGI (K-562 leukemia): 34.2 µM
TGI (OVCAR-5 ovarian): 34.8 µM
TGI (SW-620 colon): 23.5 µM
TGI (DMS 114 small cell lung): 30.5 µM
TGI (EKVX NSCLC): 20.4 µM
